Experimental data from patent publication US20060105013A1, “Osteopontin-coated surfaces and methods of use” (priority 2000, published 2006).

What was measured:
Haundel/Labrador dogs = experiment: In vivo histology of bone healing around rhOPN coated Ti implants in dogs; set-up: species or system dog; conditions: hollow screw Ti implants, dogs sacrificed after 4 and 8 weeks; vs uncoated
From the text: Forty implants (5 per quadrant) were placed in four Haundel/Labrador dogs after extraction of four premolars (PM1-PM4) and one molar (M1), and a three month healing period. Eight hollow screw Ti implants were coated with rhOPN. Eight uncoated implants served as controls. The remaining implants were coated with 3 additional different molecules denoted as study 2, study 3, and study 4.
Prior to implant placement, core samples from the donor place were taken to histologically analyze bone quality after extractions. This procedure, also ensured a hollow space for bone ingrowth inside the coated and uncoated implants. Dogs were sacrificed after 4 and 8 weeks.
Implants were recovered for histological analysis. Each implant was sectioned vertically. The core inside the hallow implant was removed using liquid nitrogen. Decalcified sections were embedded in paraffin and stained using Herovichi's techniques to differentiate immature from mature collagen. Light microscopy at 4× and 40× magnifications were used to compare histological differences between rhOPN coated implants and uncoated implants.
Uncoated implants show normal bone healing characterized by granulation tissue and a few areas of vascularization and matrix deposition after four weeks.

HOS cells [1] = experiment: Attachment of HOS cells to Ti disks coated with rhOPN; assay type: cell-based, human; conditions: Ti disks coated with 50 μg of rhOPN; after 30 min; vs uncoated
Method: HOS cells were labeled overnight with 10 uCi ^3H-thymidine, then dissociated from the plate with non-enzymatic dissociation solution (Sigma), washed 2 times with PBS, and counted. ^3H-thymidine incorporated into TCA insoluble material was determined for the cells. 5000 cells (cpm total 1000) were plated onto coated or uncoated titanium disks and the disks incubated at 37° C. for 30 min. Unadhered cells were removed, and attached cells were washed 3 times with 0.5 ml PBS. The cells were lysed with ice cold 20% TCA and the radioactivity in the TCA insoluble fraction was determined using the Scintillation counter (Begman 5000).
5000 cells (total cpm 1000) were plated on either coated or uncoated Ti disks and incubated at 37° C. in a humidified atmosphere (95% air 5% CO2). After 30 min, unattached cells were removed and the disks were washed with PBS. The total number of attached cells was determined for the total cpm released for the disks after the cells were lysed with 10% TCA and solubilized in 5 ml scintillation fluid. All measurements were done in triplicates and graphed as mean±Standard error of the mean.
The initial events following seeding of cells onto Ti surfaces include the attachment, migration and proliferation of the seeded cells. Coating Ti disks with 50 μg of rhOPN enhanced by 1100% the attachment of HOS cells to Ti disks (FIG. 2), after 30 min.

HOS cells [2] = experiment: Extracellular matrix mineralization (calcium content) of HOS cells on coated Ti disks; assay type: cell-based, human; conditions: ascorbate and β-glycerol phosphate, uncoated did not mineralize
Method: HOS cells were grown either on coated or uncoated titanium disks. Media was supplemented with ascorbate and b-glycerol phosphate to stimulate the mineralization of the extracellular matrix. After two weeks, media was removed and the cells were lysed with triton. Then, all soluble components were removed and calcium content was determined using quantitative, calorimetric determination at […] (Sigma Diagnostics Calcium). Basically, calcium reacts with o-cresolphthalein, a chromogenic agent that in an alkaline medium forms a purple colored complex. The intensity of the color, measured at […], is directly proportional to calcium concentration in the sample.
HOS cells were grown either on coated or uncoated titanium disks. Media was supplemented with ascorbate and β-glycerol phosphate. After two weeks, media was removed and the cells were lysed. Then, all soluble components were removed and calcium content was determined using quantitative, colorimetric determination at 575 nm (Sigma Diagnostics Calcium). All measurements were done in triplicates and reported as mean±Standard error in the mean.
When cultured in the presence of ascorbate and β-glycerol phosphate, HOS cells grown on coated Ti disks mineralized their extracellular matrix within 2 weeks (FIG. 5) in a manner similar to HOS cells cultured on plastic. […]

HOS cells [3] = experiment: Western blot of osteopontin and BSP secreted into extracellular matrix by HOS cells on coated Ti disks; assay type: cell-based, human
Method: Osteopontin and BSP were extracted from the extracellular matrix of HOS cells cultured on Ti disks or Ti disks coated with the recombinant Opn with lysis buffer (20 mM phosphate buffer, pH, 7.2, containing 150 mM NaCI, 0.1% SDS, 1 mM phenylmethylsulfonyl fluoride, 5 mM benzamidine, 0.1 mM e-amino caproic acid, 0.1 b-hydroxy mercuribenzoate, 0.1 mM pyrophosphate, 1 mM sodium fluoride, 1 mM sodium orthovanadate and 10 mM EDTA). Samples were then processed for Gel electrophoresis.
Western blot analysis: Cell layer proteins and conditioned media was electrophoresed in 10% SDS-polyacrylamide slab gels at 150 volts for 4 h. For Western blot analysis resolved proteins in gels were transferred by semi-dry blotting onto nitrocellulose membranes (Schleicher & Schuell, Keene, N H), gel transfers were carried out for 90 min. at 12 V in 0.025 M Tris-glycine buffer, pH 8.2, containing 20% methanol and 0.01% Tween 20 and 10% nonfat dry milk, then incubated with rabbit anti-mouse osteopontin (Ashkar S, et al., New York Academy of Science 760:296-298, 1995) in 20 mM Phosphate buffer, pH 7.4, containing 150 mM NaCL, 0.1% Tween 20 and 1% nonfat dry milk. […] Nonspecific interaction was assessed by the interaction of the primary and secondary antibodies with rabbit serum albumin. […]

rhOPN: human recombinant phosphorylated form of osteopontin
bone healing around implants (histology) (Haundel/Labrador dogs): enhanced bone healing
enhancement of attachment of HOS cells to Ti disks (HOS cells [1]): 1100%
time within which HOS cells mineralized their extracellular matrix (HOS cells [2]): ≤ 2 weeks
OPN secretion into the extracellular matrix (Western blot) (HOS cells [3]; HOS cells on coated Ti disks vs uncoated titanium controls): increased secretion of OPN
BSP extracellular matrix secretion (Western blot) (HOS cells [3]; HOS cells on rhOPN coated implants, control groups did not express BSP): less marked than the production of osteopontin
